The record followed here is paper PMC5681660, “Reduced hepatitis B and D viral entry using clinically applied drugs as novel inhibitors of the bile acid transporter NTCP” (Scientific Reports, 2017).

Where a name gives a salt, the structure may show the parent alone. Read-outs that look alike come from different tables or passages of the source.

For data set [1], the target named is T1, human NTCP (Homo sapiens, UniProt Q14973).
T1 sequence (Q14973 1-349): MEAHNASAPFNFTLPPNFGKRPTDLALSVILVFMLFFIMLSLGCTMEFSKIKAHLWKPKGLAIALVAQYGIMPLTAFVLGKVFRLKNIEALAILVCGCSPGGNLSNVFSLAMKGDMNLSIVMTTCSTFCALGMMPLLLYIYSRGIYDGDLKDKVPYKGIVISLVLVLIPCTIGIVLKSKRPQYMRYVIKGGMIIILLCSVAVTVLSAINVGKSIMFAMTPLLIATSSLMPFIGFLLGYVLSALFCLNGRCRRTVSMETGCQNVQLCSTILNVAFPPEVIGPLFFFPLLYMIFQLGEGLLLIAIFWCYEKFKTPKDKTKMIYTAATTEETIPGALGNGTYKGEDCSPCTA
Nature of the data set: Screening taurocholate uptake assay (96-well, [14C]taurocholate, 10 µM drug).

In data set [2] the target is T1, human NTCP. Nature of the data set: Screening fluorescent competitive Myrcludex B-FITC binding assay (96-well, 10 µM drug).
The nature of data set [3]: WST-1 cytotoxicity, wildtype U2OS cells. As to conditions: human, wildtype U2OS cells. For orientation: Formazan colour is commonly taken as a measure of viable cells.
The next data set in a line: in vitro. As to conditions: human, U2OS-HA-hNTCP cells.
[4] abbreviates: Prestwick library screen, 10 µM drug, B-score of taurocholate uptake.
The mark [5] stands for this setting: combined ranking from functional and binding assay B-scores.
Setting [6] is: Prestwick library screen, 10 µM drug, B-score of Myrcludex B-FITC binding.
Setting [7] is: combined ranking from functional and binding screening assays.
Where [8] appears, read: screen, 10 µM drug, taurocholate uptake.
Setting [9] is: screen, 10 µM drug, Myrcludex B-FITC binding.
The mark [10] stands for this setting: Prestwick library screen, taurocholate uptake, 10 µM drug.
Where [11] appears, read: ranking score beside the functional and binding assay B-scores of the screen.
[12] abbreviates: Prestwick library screen, Myrcludex B-FITC binding, 10 µM drug.

Turning to `CC(C)(N)Cc1ccccc1.Cl` [Phentermine hydrochloride], on human NTCP [1] (setting [4]), the B-score functional assay was determined as 2.461. Also, the Ranking score at human NTCP [1] (setting [5]) is reported as 1114.52. The B-score binding assay on human NTCP [2] (setting [6]) came to 0.892.
Take `O=C1c2ccccc2S(=O)(=O)N1CCCCN1CCN(c2ncccn2)CC1` [Ipsapirone]: on human NTCP [1] (setting [4]), the B-score functional assay is 1.921. For the same compound, the Ranking score at human NTCP [1] (setting [5]) is on record as 1093.42. This compound also displayed a B-score binding assay at human NTCP [2] (setting [6]) of 0.854.
Take `CN1CCc2c(c3ccccc3n2Cc2ccccc2)C1.O=S(=O)(O)c1cccc2c(S(=O)(=O)O)cccc12` [Mebhydroline 1,5-naphtalenedisulfonate]: the B-score functional assay on human NTCP [1] (setting [4]) is 0.022. Besides, the Ranking score at human NTCP [1] (setting [5]) is reported as 893.031. This compound came in with a B-score binding assay on human NTCP [2] (setting [6]) of 1.889.
As for `CC(=O)Oc1cc(C(C)C)c(OCCN(C)C)cc1C.Cl` [Moxisylyte hydrochoride], the Ranking score at human NTCP [1] (setting [7]) turned out to be 375.319. The compound also returned a B-score functional assay at human NTCP [1] (setting [8]) of -0.84. This compound also had a B-score binding assay at human NTCP [2] (setting [9]) of -0.183.
For `N[C@@H]1CON=C1O` [D-cycloserine], the B-score functional assay on human NTCP [1] (setting [10]) was -0.174. For the same compound, the Ranking score at human NTCP [1] (setting [11]) was 667.017. Moreover, the B-score binding assay on human NTCP [2] (setting [12]) amounted to 0.464.
`Cc1cc(C2CCCCC2)n(O)c(=O)c1.NCCO` [Ciclopirox ethanolamine] gave a B-score functional assay at human NTCP [1] (setting [4]) of 0.776. Further, the Ranking score on human NTCP [1] (setting [5]) is listed as 1078.72. On human NTCP [2] (setting [6]), the B-score binding assay turned out to be 1.631.
As a reminder, the viability is a read-out of living cells in per cent, often relative to untreated cells. On to `CC(C)c1ccc2oc3nc(N)c(C(=O)O)cc3c(=O)c2c1` [Amlexanox], for which, in data set [3], the viability at 2 h, 1 µM was found to be 88.2 ± 9.6%; the viability at 2 h, 10 µM was determined as 94.8 ± 13.8%; the viability at 2 h, 100 µM came out at 77.3 ± 5.6%. Moreover, in “in vitro”, the viability at 2 h, 1 µM was determined as 99.6 ± 6.1%; the viability at 2 h, 10 µM stood at 102 ± 18.9%; the viability at 2 h, 100 µM was 92.7 ± 17.8%.
Turning to `CC(C)/N=c1\cc2n(-c3ccc(Cl)cc3)c3ccccc3nc-2cc1Nc1ccc(Cl)cc1` [Clofazimine], the Ranking score on human NTCP [1] (setting [7]) amounted to 436.188. Also, the B-score functional assay at human NTCP [1] (setting [8]) is -0.006. Further, at human NTCP [2] (setting [9]), the B-score binding assay is -0.74.
At human NTCP [1], `CCC(=O)O[C@H]1CC[C@H]2[C@@H]3CCC4=CC(=O)CC[C@]4(C)[C@H]3CC[C@]12C` [Testosterone propionate] gave a B-score functional assay of -0.451 and a Ranking score of 567.732. The B-score binding assay on human NTCP [2] is reported as 0.252.
In the case of Norgestrel-(-)-D, on human NTCP [1] (setting [10]), the B-score functional assay came to 0.036. The Ranking score at human NTCP [1] (setting [11]) is on record as 704.84. This compound also registered a B-score binding assay on human NTCP [2] (setting [12]) of 0.069.
Turning to `CN1C[C@H](C(=O)N[C@]2(C)O[C@@]3(O)[C@@H]4CCCN4C(=O)[C@H](Cc4ccccc4)N3C2=O)C[C@@H]2c3cccc4[nH]cc(c34)C[C@H]21.CN1C[C@H](C(=O)N[C@]2(C)O[C@@]3(O)[C@@H]4CCCN4C(=O)[C@H](Cc4ccccc4)N3C2=O)C[C@@H]2c3cccc4[nH]cc(c34)C[C@H]21.O=C(O)C(O)C(O)C(=O)O` [Dihydroergotamine tartrate], the Ranking score at human NTCP [1] (setting [7]) is given as 379.284. Moreover, the B-score functional assay at human NTCP [1] (setting [8]) came out at 0.679. At human NTCP [2] (setting [9]), this compound came in with a B-score binding assay of -1.57.
For `NC(=O)c1cccnc1` [Nicotinamide], at human NTCP [1] (setting [4]), the B-score functional assay is 1.452. Also, at human NTCP [1] (setting [5]), the Ranking score amounted to 911.172. In addition, the B-score binding assay at human NTCP [2] (setting [6]) is given as 0.079.
As for `Cc1ccc(Cl)c(Nc2ccccc2C(=O)[O-])c1Cl.O.[Na+]`, at human NTCP [1] (setting [7]), the Ranking score is recorded as 386.518. This compound also yielded a B-score functional assay at human NTCP [1] (setting [8]) of -1.621. Moreover, the B-score binding assay at human NTCP [2] (setting [9]) stood at 0.415.
At human NTCP [1] (setting [4]), `CCC1(C)CC(=O)NC1=O` (stereo not drawn) [Ethosuximide] came in with a B-score functional assay of 1.817. In addition, the Ranking score at human NTCP [1] (setting [5]) came out at 1070.41. On human NTCP [2] (setting [6]), this compound showed a B-score binding assay of 0.697.
Turning to `Nc1nc(=S)c2ncn([C@@H]3O[C@H](CO)[C@@H](O)[C@H]3O)c2[nH]1` [Thioguanosine], the Ranking score at human NTCP [1] (setting [7]) came out at 366.332. Further, the B-score functional assay at human NTCP [1] (setting [8]) was -0.426. The compound also yielded a B-score binding assay at human NTCP [2] (setting [9]) of -0.655.
Compound `CCSc1ccc2c(c1)N(CCCN1CCN(C)CC1)c1ccccc1S2.O=C(O)CC(O)C(=O)O.O=C(O)CC(O)C(=O)O` [Thiethylperazine dimalate] had a B-score functional assay at human NTCP [1] (setting [4]) of 0.623. On human NTCP [1] (setting [5]), the Ranking score is 1093.79. Besides, the B-score binding assay on human NTCP [2] (setting [6]) is 3.252.
Consider `CN(C)CCOC(c1ccc(Cl)cc1)c1ccccn1.O=C(O)/C=C\C(=O)O` (stereo not drawn) [Carbinoxamine maleate salt], for which the Ranking score at human NTCP [1] (setting [7]) is 433.532. This compound gave a B-score functional assay on human NTCP [1] (setting [8]) of 3.2. Further, the B-score binding assay on human NTCP [2] (setting [9]) is recorded as -1.565.
For `COc1ccccc1OCCNCC(O)COc1cccc2[nH]c3ccccc3c12` (stereo not drawn) [Carvedilol], the Ranking score at human NTCP [1] (setting [7]) is on record as 348.775. At human NTCP [1] (setting [8]), this compound yielded a B-score functional assay of -0.341. Also, the B-score binding assay at human NTCP [2] (setting [9]) is given as -0.836.
Compound `CCC(=O)O[C@@H](O[P@](=O)(CCCCc1ccccc1)CC(=O)N1C[C@H](C2CCCCC2)C[C@H]1C(=O)O)C(C)C` [Fosinopril] yielded a B-score functional assay on human NTCP [1] (setting [10]) of 3.318. In addition, at human NTCP [1] (setting [11]), the Ranking score stood at 655.924. On human NTCP [2] (setting [12]), this compound yielded a B-score binding assay of -0.621.
Take `Nc1nc(O)c2ncn(COC(CO)CO)c2n1` [Ganciclovir]: the Ranking score on human NTCP [1] (setting [7]) was 278.51. At human NTCP [1] (setting [8]), this compound showed a B-score functional assay of -2.412. On human NTCP [2] (setting [9]), this compound displayed a B-score binding assay of 0.144.
In the same order, the values of `COc1cccc(C2(O)CCCCC2CN(C)C)c1.Cl` (stereo not drawn) [Tramadol hydrochloride] are 410.66, 0.906 and -1.463.
The like results for `O=C([O-])CCNC(=O)c1ccc(/N=N/c2ccc(O)c(C(=O)[O-])c2)cc1.[Na+].[Na+]` [Balsalazide Sodium] were, in that order, 403.097, -0.35 and -0.506.
As to `C[C@]12CC[C@@H]3c4ccc(O)cc4C[C@@H](CCCCCCCCC[S+]([O-])CCCC(F)(F)C(F)(F)F)[C@H]3[C@@H]1CC[C@@H]2O` (stereo partly drawn) [Fulvestrant], the B-score functional assay at human NTCP [1] (setting [10]) is on record as 1.208. At human NTCP [1] (setting [11]), this compound yielded a Ranking score of 701.076. At human NTCP [2] (setting [12]), this compound yielded a B-score binding assay of -0.303.
As to `CCOc1ccc2c(c1)C(C)=CC(C)(C)N2` [Ethoxyquin], at human NTCP [1] (setting [7]), the Ranking score came out at 406.463. The same compound registered a B-score functional assay on human NTCP [1] (setting [8]) of 0.194. This compound also returned a B-score binding assay at human NTCP [2] (setting [9]) of -1.217.
On human NTCP [1] (setting [10]), `CCC1(c2ccccc2)NC(=O)N(C)C1=O` (stereo not drawn) [Mephenytoin] yielded a B-score functional assay of 0.862. In addition, the Ranking score on human NTCP [1] (setting [11]) came to 812.389. On human NTCP [2] (setting [12]), this compound registered a B-score binding assay of 0.
In the same order, the values of `CC(O)(P(=O)([O-])O)P(=O)([O-])O.[Na+].[Na+]` [Etidronic acid, disodium salt] are -0.023, 776.081 and 0.806.
In the same order, the values of `CCOc1nc2cccc(C(=O)O)c2n1Cc1ccc(-c2ccccc2-c2nnn[nH]2)cc1` [Candesartan] are 0.287, 798.474 and 0.128.
Regarding `O=C1NCCN1CCN1CCC(c2cn(-c3ccc(F)cc3)c3ccc(Cl)cc23)CC1` [Sertindole], at human NTCP [1] (setting [4]), the B-score functional assay amounted to 0.957. Further, the Ranking score at human NTCP [1] (setting [5]) is recorded as 1028.08. In addition, the B-score binding assay on human NTCP [2] (setting [6]) was 0.84.
Take `CN(C)CCc1c[nH]c2ccc(Cn3cncn3)cc12` [Rizatriptan benzoate]: the B-score functional assay on human NTCP [1] (setting [10]) is recorded as -0.205. Moreover, the Ranking score on human NTCP [1] (setting [11]) stood at 781.971. Besides, the B-score binding assay on human NTCP [2] (setting [12]) is 3.436.
Compound `CCn1cc(C(=O)O)c(=O)c2cnc(N3CCCC3)nc21` [Piromidic acid] had a B-score functional assay at human NTCP [1] (setting [4]) of 1.197. For the same compound, the Ranking score on human NTCP [1] (setting [5]) was found to be 874.684. The compound also showed a B-score binding assay on human NTCP [2] (setting [6]) of 0.041.
In the same order, the values of `CNCCC=C1c2ccccc2CCc2ccccc21` [Nortriptyline hydrochloride] are 1.081, 1101.36 and 1.407.
Turning to `C(#CCN1CCCC1)CN1CCCC1.Cl.Cl` [Tremorine dihydrochloride], the Ranking score on human NTCP [1] (setting [7]) was found to be 382.832. Moreover, on human NTCP [1] (setting [8]), the B-score functional assay is -2.034. Further, at human NTCP [2] (setting [9]), the B-score binding assay is recorded as 1.525.
As to `CN(C)/N=N/c1[nH]cnc1C(N)=O` [Dacarbazine], the B-score functional assay at human NTCP [1] (setting [4]) is 0.084. For the same compound, the Ranking score on human NTCP [1] (setting [5]) is on record as 928.431. The compound further displayed a B-score binding assay at human NTCP [2] (setting [6]) of 1.762.
